Columns and labels:
[1] = system: 34 human cancer cell lines; experiment: In vitro cell growth assay, Sulphorhodamine B (SRB); format: cell-based; settings: 48 h exposure
Protocol: Cell proliferation was evaluated by Sulphorhodamine B (SRB) assay where the amount of dye bound to the cells after staining gives a measure of cell growth. Refer to: JNCI, vol 83, No. 11, Jun. 5, 1991, which is incorporated herein by reference.
Briefly, cells (34 human cancer cell lines represented by bladder, breast, CNS, colon, epidermoid, lung, ovarian, melanoma, prostate, renal and uterine cancers) were seeded on a 96-well cell culture plates at a concentration of 10,000 cells per well and incubated at 37 degree C. in a CO2 incubator. Twenty-four hours later, cells were treated with different concentrations of […] dissolved in DMSO to a final concentration of 0.05% in the culture medium and exposed for 48 h. Cells were fixed by adding ice-cold 50% trichloroacetic acid (TCA) and incubating for 1 h at 4° C. The plates were washed with distilled water, air dried and stained with SRB solution (0.4% wt/vol in 1% Acetic acid) for 10 min at room temperature. Unbound SRB was removed by washing thoroughly with 1% acetic acid and the plates were air-dried. The bound SRB stain was solubilized with 10 mM Tris buffer, and the optical densities were read on a spectrophotometric plate reader at a single wavelength of 515 nm. […] From the optical densities the percentage growths were calculated using the following formulae: […]

[2] = system: NCl-H460 (human small cell lung carcinoma) xenografts; experiment: NCl-H460 xenograft study in nude mice; settings: oral, (d×5)2 schedule
Protocol: To perform the NCl-H460 xenograft study, NCl-H460 tumor pieces measuring ~60 mm^3 were implanted in the space of dorsal lateral flanks of female athymic nude mice to initiate tumor growth. When the tumors were grown to ~150-1000 mm^3, animals were randomized into groups of five prior to initiating therapy. […] Each gram of placebo was formulated to contain 895.2 mg hydroxylpropyl beta cyclodextran, 89.52 mg dextrose anhydrous and 14.9 mg sodium carbonate. Each formulation was dissolved in 2 ml sterile water and administered through oral route in a (d×5)2 schedule. Tumor diameters were measured twice a week using a vernier caliper.
Tumor volumes were calculated assuming tumors to be ellipsoid using the formula: V=(D×d^2)/2, where V (mm^3) is tumor volume, D is longest diameter in mm and d is shortest diameter in mm. Change in tumor volumes (Δ) for each treated (T) and control (C) group were calculated by subtracting the mean tumor volume on the first day of treatment (starting day) from the mean tumor volume on the specified observation day. These values were used to calculate a percentage growth (% T/C) using the formulas:
Percentage tumor growth inhibition (% TGI) was then calculated using the formula: % TGI=100−% TC.
All of the mice bearing subcutaneous tumors measuring approximately 150-800 mm^3 were treated with test compound through oral gavage using a (d×5)2 schedule. Tumor diameters were measured twice in a week using vernier calipers and tumor volumes were calculated assuming tumors to be ellipsoid using the formula V=(D×d^2)/2 where V (mm^3) is tumor volume, D is longest diameter in mm., and d is shortest diameter in mm. Changes in tumor Volumes (Δ volumes) for each treated (T) and control (C) group are calculated, by subtracting the mean tumor volume on the first day of treatment (starting day) from the mean tumor volume of on the specified observation day. These values are used to calculate a percentage growth (% T/C) using the formula: […]
Tumor regressions are defined as partial if the tumor volume decreases to 50% or less of the tumor volume at the start of the treatment without dropping below to 63 mm^3. Complete regression is defined if the tumor volume drops to below measurable limits (<63 mm^3).
The percentage body weight change in comparison to starting day body weight of each animal was calculated using the formula: Percentage Body weight change=[(Body weight on specified observation day-Body weight on starting day)/Body weight on starting day]×100.
The other parameter observed was mortality.

[3] = system: Saos-2 cells over expressing non-functional BCRP mut#10; experiment: cells; format: cell-based, human; settings: for IC50: Homo sapiens, SAOS-2, 144 h, read-out: BCRP mut#10 (IC50 (nM))
Protocol: (§1) The anticancer effect of 5(S)-(2′-hydroxyethoxy)-20(S)-camptothecin & 5(R)-(2′-hydroxyethoxy)-20(S)-camptothecin were evaluated versus the racemate 5(RS)-(2′-hydroxyethoxy)-20(S)-camptothecin on Saos-2 cells over expressing functional BCRP#4 and non-functional BCRP mut#10. The human osteosarcoma cell line, Saos-2, was obtained from ATCC (American Type Culture Collection, Cat#HTB-85, Manassas, Va.) and were maintained in DMEM containing 10% fetal bovine serum, 1% penicillin/streptomycin, and 2 mM glutamine. Saos-2 cells were transfected with either BCRP#4 to over express functional BCRP or BCRP#10 to over express non-functional BCRP transporter. The cells were plated in 96-well plates at a density of 1000 cells per each well in a 0.1 ml of medium and allowed to attach overnight. The next morning the medium was gently aspirated and serial dilutions of the compounds to be tested were added. The cells were incubated at 37° C. in a 5% CO2 incubator. After 6 days of exposure to the test drugs, 10µl of Alamar blue was added aseptically to each well and the plates were returned to the incubator for 6 hr. The amount of the fluorescent dye produced was measured on a Cytofluor.RTM. 2300 (Millipore, Bedford, Mass.) using an excitation wavelength of 530 nm and emission wavelength of 590 nm. The relative fluorescence units obtained were used to calculate the percentage growth at each concentration in relation to the untreated control values. From the percentage growth values the IC50 (inhibitory concentration required to inhibit the cell growth by 50% compared to control cells growth) values were derived.

[4] = system: Saos-2 cells over expressing functional BCRP#4; experiment: cells; format: cell-based, human; settings: for IC50: Homo sapiens, SAOS-2, 144 h, read-out: BCRP mut#4 (IC50 (nM))
Protocol: as §1

[5] = system: Human bone marrow mononuclear cells; experiment: Human bone marrow assay (CFU-GM colonies); format: cell-based; settings: GI90 for human cell toxicity to GI50 for anticancer activity
Protocol: Methocult.TM. GF (Cat No: H4534, Poietics, Biowhittakar, USA) medium comprising Methycellulose in iscove's MDM, Fetal bovine serum, Bovine serum albumin, 2-Mercaptoethanol, L-Glutamine, rhStem cell factor, rhGM-CSF and rhIL-3 was used for the assay. Human bone marrow mononuclear cells (Cat No. 2M-125C, Poietics, Biowhittakar, USA) were mixed with Methocult GF and the cell density was adjusted to 3×10^5 cells/ml. From this preparation, 500 μL aliquots were made and […] of 20× drug solution or vehicle was added to each aliquot and mixed thoroughly. 100 μL of clonogenic medium was plated into each well and the plates were allowed to gel at 4° C. for 15 minutes. Plates were incubated at 37 degree C. in a fully humidified atmosphere of 5% CO2 in an incubator for 14 days. CFU-GM colonies were counted under an inverted microscope as aggregates of 50 cells or more. The percentage colony inhibition was calculated using the following formula: 100−[(number of colonies in drug treated wells/Number of colonies in control wells)×100].

| SMILES | GI50 [1] [nM] | % Tumor Growth Inhibition ([2]; Dose 2 mg/kg) [%] | Mortality ([2]; Dose 2 mg/kg) | % Tumor Growth Inhibition ([2]; Dose 4 mg/kg) [%] | Mortality ([2]; Dose 4 mg/kg) | fold more cytotoxic than 5(R)-(2′-hydroxyethoxy)-20(S)-camptothecin [3] [fold] | IC50 [3] [nM] | fold more cytotoxic than 5(R)-(2′-hydroxyethoxy)-20(S)-camptothecin [4] [fold] | IC50 [4] [nM] | Safety Margin GI90/GI50 [5] |
| --- | --- | --- | --- | --- | --- | --- | --- | --- | --- | --- |
| CC[C@@]1(O)C(=O)OCc2c1cc1n(c2=O)[C@@H](OCCO)c2cc3ccccc3nc2-1 [DRF-(5S,20S)-1042, 5(S)-(2′-hydroxyethoxy)-20(S)-camptothecin] | 5000 | 68 | 0/5 | 76 | 0/5 | ~6 | 213 | > 2.5 | 788 | 0.14 |
| CC[C@@]1(O)C(=O)OCc2c1cc1n(c2=O)C(OCCO)c2cc3ccccc3nc2-1 (mixture of isomers) [5(RS)-(2′-hydroxyethoxy)-20(S)-camptothecin, reference compound] | – | 60 | 0/5 | 64 | 0/5 | – | 387 | – | 1260 | – |
